According to patent US20190375708A1 (VenatoRx Pharmaceuticals, Inc., priority 2018, published 2019):

Experiments:
[1] = test system: HBV replication in HepAD38 cells; test: Anti-HBV replication assay in HepAD38 cells (QPCR of extracellular HBV DNA); format: cell-based, HBV (genotype D, serotype ayw); details: Hepatitis B virus, 168 h, 7 days incubation, extracellular HBV DNA by QPCR, read-out: Anti-HBV EC50
Procedure, shortened: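 EC50 values reflect 50% reduction of extracellular HBV DNA, measured by QPCR after 7-day treatment of tetracycline-deprived HepAD38 cells with compound […].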

[2] = In vitro cytotoxicity assay (MTT cell viability) in HepG2 cells; format: cell-based, human; details: human
Procedure, shortened: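 HepG2 cells incubated 7 days at 37 °C, 5% CO2 with compounds from 30 μM to 1.0 nM (8 half-log dilutions). Viability read as MTT formazan absorbance at 492 nm, normalised to vehicle controls; CC50 from 4-parameter non-linear regression.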

SMILES	EC50 [1] [nM]	CC50 at 7 days [2] [nM]
Cc1cc(NC(=O)c2c(C)c(C(=O)C(=O)NC34CC5CC(CC(O)(C5)C3)C4)n(C)c2C)cnc1F [Example 114, N-(6-fluoro-5-methylpyridin-3-yl)-5-(2-(((1r,3s,5R,7S)-3-hydroxyadamantan-1-yl)amino)-2-oxoacetyl)-1,2,4-trimethyl-1H-pyrrole-3-carboxamide]	< 50	> 30000
CNC(=O)[C@H](NC(=O)C(=O)c1c(C)c(C(=O)Nc2ccc(F)c(C)c2)c(C)n1C)C(C)(C)C [Example 60, (R)-5-(2-((3,3-dimethyl-1-(methylamino)-1-oxobutan-2-yl)amino)-2-oxoacetyl)-N-(4-fluoro-3-methylphenyl)-1,2,4-trimethyl-1H-pyrrole-3-carboxamide]	< 50	> 30000
CCn1c(C)c(C(=O)Nc2ccc(F)c(C)c2)c(C)c1C(=O)C(=O)NC(C)(C)C(N)=O [Example 99, 5-(2-((1-amino-2-methyl-1-oxopropan-2-yl)amino)-2-oxoacetyl)-1-ethyl-N-(4-fluoro-3-methylphenyl)-2,4-dimethyl-1H-pyrrole-3-carboxamide]	50 to 499	> 30000
Cc1cc(NC(=O)c2c(C)c(C(=O)C(=O)N[C@@]3(C)CC[C@@H](O)C3)n(C)c2C)ccc1F [Example 722, N-(4-fluoro-3-methylphenyl)-5-(2-(((1S,3R)-3-hydroxy-1-methylcyclopentyl)amino)-2-oxoacetyl)-1,2,4-trimethyl-1H-pyrrole-3-carboxamide]	< 50	> 30000
Cc1noc(C2(NC(=O)C(=O)c3c(C)c(C(=O)Nc4ccc(F)c(C)c4)c(C)n3CCF)CC2)n1 [Example 203, N-(4-fluoro-3-methylphenyl)-1-(2-fluoroethyl)-2,4-dimethyl-5-(2-((1-(3-methyl-1,2,4-oxadiazol-5-yl)cyclopropyl)amino)-2-oxoacetyl)-1H-pyrrole-3-carboxamide]	< 50	> 30000
Cc1cc(NC(=O)c2c(Cl)c(C(=O)C(=O)N[C@H]3CCC[C@H]3O)n3c2CCCC3)ccc1F [Example 506, 2-chloro-N-(4-fluoro-3-methylphenyl)-3-(2-(((1S,2R)-2-hydroxycyclopentyl)amino)-2-oxoacetyl)-5,6,7,8-tetrahydroindolizine-1-carboxamide]	500 to 1000	5000 to 30000
Cc1cc(NC(=O)c2c(C)c(C(=O)C(=O)NC3(CO)CCC3)n3c2CCCC3)ccc1F [Example 442, N-(4-fluoro-3-methylphenyl)-3-(2-((1-(hydroxymethyl)cyclobutyl)amino)-2-oxoacetyl)-2-methyl-5,6,7,8-tetrahydroindolizine-1-carboxamide]	< 50	5000 to 30000
Cc1cc(NC(=O)c2c(Cl)c(C(=O)C(=O)NC(C)(C)C(F)(F)F)n3c2CCC3)cnc1F [Example 573, 6-chloro-N-(6-fluoro-5-methylpyridin-3-yl)-5-(2-oxo-2-((1,1,1-trifluoro-2-methylpropan-2-yl)amino)acetyl)-2,3-dihydro-1H-pyrrolizine-7-carboxamide]	50 to 499	> 30000
Cc1cc(Cl)cc(NC(=O)c2c(C)c(C(=O)C(=O)N[C@]3(C)CC[C@@H](O)CC3)n(C)c2C)c1 [Example 687, N-(3-chloro-5-methylphenyl)-5-(2-(((1r,4r)-4-hydroxy-1-metthylcyclohexyl)amino)-2-oxoacetyl)-1,2,4-trimethyl-1H-pyrrole-3-carboxamide]	< 50	5000 to 30000
Cc1c(C(=O)Nc2ncc(C(F)(F)F)s2)c2n(c1C(=O)C(=O)NC(C)(C)CO)CCCC2 [Example 757, 3-(2-((1-hydroxy-2-methylpropan-2-yl)amino)-2-oxoacetyl)-2-methyl-N-(5-(trifluoromethyl)thiazol-2-yl)-5,6,7,8-tetrahydroindolizine-1-carboxamide]	50 to 499	> 30000
